Assay results as given in US11986450B2, “Methods and compositions for treating infection and inflammation with selenocyanate” (National Jewish Health, priority 2017, dated 2024).

Key:
AMT-9 = assay: Bacterial sensitivity towards HOSCN killing; assay type: cell-based, Pseudomonas aeruginosa (PA); settings: AMT-9, CF sputum isolate; HOSCN flux for 2 hours, GOX/LPO/SCN system, pH 7.4
Procedure: (§1) FIGS. 11A-11D. […] A lactoperoxidase (LPO) system was used to generate increasing fluxes of either HOSCN or HOSeCN in presence of 400 μM of either ^−SCN or ^−SeCN. LPO in the presence of a hydrogen peroxide generating system (glucose oxidase, GOX) can convert both thiocyanate and selenocyante to their respective hypopseudohalous acid species (HOSCN and HOSeCN) that are biocides. […] Bacterial inoculums (10^6 colony forming units, CFU) were incubated with host defense system for 2 hours at room temperature and bacteria were plated on LB agar plates and cell viability was determined by dilution and counting CFUs.
(§2) LPO in the presence of a hydrogen peroxide generating system (glucose oxidase, GOX) can convert both thiocyanate and selenocyante to their respective hypopseudohalous acid species (HOSCN and HOSeCN) that are biocides. […] Bacterial inoculums (10^6 colony forming units, CFU) were incubated with host defense system for 2 hours at room temperature and bacteria were plated on LB agar plates and cell viability was determined by dilution and counting CFUs. Lethal concentrations that kill 50% of bacteria (LC50) were determined by non-linear curve fitting the data.
(§3) Bacteria were incubated for 2 hour with LPO, ^−SCN or SeCN, glucose and increasing amounts of GOX. The flux (HOX) of either HOSCN or HOSeCN was determined from standard curves of GOX/LPO and either HOSCN or HOSeCN. LC50 values were determined by curve fitting the data with nonlinear regression of log (agonist) vs normalized response.

PA 39 = assay: Bacterial sensitivity towards HOSCN killing; assay type: cell-based, Pseudomonas aeruginosa (PA); settings: PA 39, CF sputum isolate; HOSCN flux for 2 hours, GOX/LPO/SCN system, pH 7.4
Procedure: as §1, §2, §3

PA-T = assay: Bacterial sensitivity towards HOSCN killing; assay type: cell-based, Pseudomonas aeruginosa (PA); settings: CF sputum isolate, HOSCN flux for 2 hours, GOX/LPO/SCN system, pH 7.4
Procedure: as §1, §2, §3

PA-X = assay: Bacterial sensitivity towards HOSCN killing; assay type: cell-based, Pseudomonas aeruginosa (PA); settings: CF sputum isolate, HOSCN flux for 2 hours, GOX/LPO/SCN system, pH 7.4
Procedure: as §1, §2, §3

PAO1 = assay: Bacterial sensitivity towards HOSCN killing; assay type: cell-based, Pseudomonas aeruginosa (PA); settings: HOSCN flux for 2 hours, GOX/LPO/SCN system, pH 7.4
Procedure: as §1, §2, §3

MRSA 43 = assay: Bacterial sensitivity towards HOSCN killing; assay type: cell-based, methicillin-resistant Staphylococcus aureus (MRSA); settings: MRSA 43, CF sputum isolate; HOSCN flux for 2 hours, GOX/LPO/SCN system, pH 7.4
Procedure: as §1, §2, §3

MRSA 44 = assay: Bacterial sensitivity towards HOSCN killing; assay type: cell-based, methicillin-resistant Staphylococcus aureus (MRSA); settings: MRSA 44, CF sputum isolate; HOSCN flux for 2 hours, GOX/LPO/SCN system, pH 7.4
Procedure: as §1, §2, §3

MRSA 45 = assay: Bacterial sensitivity towards HOSCN killing; assay type: cell-based, methicillin-resistant Staphylococcus aureus (MRSA); settings: MRSA 45, CF sputum isolate; HOSCN flux for 2 hours, GOX/LPO/SCN system, pH 7.4
Procedure: as §1, §2, §3

MRSA 46 = assay: Bacterial sensitivity towards HOSCN killing; assay type: cell-based, methicillin-resistant Staphylococcus aureus (MRSA); settings: MRSA 46, CF sputum isolate; HOSCN flux for 2 hours, GOX/LPO/SCN system, pH 7.4
Procedure: as §1, §2, §3

[1] = test system: Human bronchiolar lung cells (16HBE); assay: Lung cell viability (LDH release) after HOSCN generation; assay type: cell-based; settings: 2 hrs, about 120 μM/hr, viability 24 hrs later
Procedure: (§4) FIGS. 4A-4B. […] Studies were conducted under similar conditions that generated about 120 μM/hr of either HOCl or HOSCN. (FIG. 4A) Human bronchiolar lung cells (16HBE) or (FIG. 4B) Pseudomonas aeruginosa (PA01) were treated for 2 hrs with glucose oxidase (GOX) system (generates H2O2), enzyme alone (MPO or LPO), or full system (enzyme+GOX), or full system with […]. Viability was assessed 24 hrs later by lactate dehydrogenase release for lung cells or determination of colony forming units (CFUs) for bacteria.

[2] = test system: Pseudomonas aeruginosa (PA01); assay: Bacterial viability (CFU) after HOSCN generation; assay type: cell-based; settings: 2 hrs, about 120 μM/hr
Procedure: as §4

DmTrxR (containing Cys) = DmTrxR (containing Cys) (Drosophila melanogaster, UniProt P91938); assay: Inactivation of TrxR by oxidants; assay type: biochemical
Procedure: (§5) Based on data, it is expected that Sec-TrxR1 is able to metabolize both HOSCN and HOSeCN but not HOCl, and that Cys-TrxR's is unable to metabolize these oxidants. The active site Cys or Sec residue of each respective enzyme is oxidized to either Cys-SO2^− or Sec-SeO2^−. The Cys-TrxR cannot recover from this oxidation while the Sec-TrxR can. To test this, an inactivation assay is performed followed by structural analysis of the protein by MS. In the inactivation assay, (i) enzymes are reduced with NADPH, (ii) the enzymes are treated with oxidant followed by desalting to remove oxidant, and (iii) the enzyme is assayed for activity. […] The proteins are proteolyzed followed by LC-MS analyses. The LC-MS profiles are compared to control samples not treated with oxidant. This determines the exact mechanism of inactivation for each enzyme. […] This would explain why HOCl is highly inflammatory (nonspecific oxidation), and why HOSCN is used as a bactericide because it can rapidly inactivate proteins/enzyme by oxidation of sulfur amino acids (Cys, Met), but can be metabolized by the host cell by Sec-TrxR.

[3] = target: Sec-containing TrxR2 (Sec-TrxR2) (Mus musculus, UniProt Q9JLT4); assay: Inactivation of TrxR by oxidants; assay type: biochemical
Procedure: as §5

P. aeruginosa: AMT0027L [4] = assay: HOSCN reductase activity
P. aeruginosa: AMT0294L = assay: HOSCN reductase activity
P. aeruginosa: AMT0009L = assay: HOSCN reductase activity
P. aeruginosa: AMT0058L = assay: HOSCN reductase activity
P. aeruginosa: AMT0027L [5] = assay: Viability after HOSCN exposure; settings: late disease antibiotic-resistant CF isolate
P. aeruginosa: AMT0145L = assay: Viability after HOSCN exposure; settings: late disease antibiotic-resistant CF isolate

Chain of DmTrxR (containing Cys) (P91938 112-596 limits assumed): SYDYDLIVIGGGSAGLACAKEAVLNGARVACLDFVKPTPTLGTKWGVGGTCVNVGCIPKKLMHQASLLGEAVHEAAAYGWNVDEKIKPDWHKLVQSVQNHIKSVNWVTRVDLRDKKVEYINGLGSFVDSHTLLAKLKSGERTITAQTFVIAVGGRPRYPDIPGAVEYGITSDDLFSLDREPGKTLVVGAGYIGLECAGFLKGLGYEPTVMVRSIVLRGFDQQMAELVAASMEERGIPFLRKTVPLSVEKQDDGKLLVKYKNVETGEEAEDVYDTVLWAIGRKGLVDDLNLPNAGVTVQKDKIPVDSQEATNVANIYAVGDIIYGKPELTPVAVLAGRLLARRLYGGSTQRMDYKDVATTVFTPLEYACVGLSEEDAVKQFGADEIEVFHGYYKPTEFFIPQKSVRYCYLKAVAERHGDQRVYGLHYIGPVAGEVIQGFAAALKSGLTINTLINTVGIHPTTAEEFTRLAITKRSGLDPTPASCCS
Chain of Sec-containing TrxR2 (Sec-TrxR2) (Q9JLT4 35-524): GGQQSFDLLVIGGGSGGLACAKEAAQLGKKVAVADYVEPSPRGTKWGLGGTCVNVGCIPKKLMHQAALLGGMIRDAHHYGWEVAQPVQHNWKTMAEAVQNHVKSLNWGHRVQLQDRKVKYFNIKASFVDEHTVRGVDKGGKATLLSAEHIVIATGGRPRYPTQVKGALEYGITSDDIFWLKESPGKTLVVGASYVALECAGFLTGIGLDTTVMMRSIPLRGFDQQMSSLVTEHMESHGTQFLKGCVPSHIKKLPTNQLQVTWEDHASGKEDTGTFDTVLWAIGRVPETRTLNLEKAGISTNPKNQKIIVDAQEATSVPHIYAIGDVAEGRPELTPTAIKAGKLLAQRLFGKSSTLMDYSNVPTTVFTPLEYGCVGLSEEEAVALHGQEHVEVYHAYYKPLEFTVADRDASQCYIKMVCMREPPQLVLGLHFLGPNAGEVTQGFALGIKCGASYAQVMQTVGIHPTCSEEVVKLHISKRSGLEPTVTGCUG

Compound: N#CSO [HOSCN, hypothiocyanite]
- HOSCN IC50 (AMT-9): 5 µM/h
- HOSCN IC50 (PA 39): 5 µM/h
- HOSCN IC50 (PA-T): 48 µM/h
- HOSCN IC50 (PA-X): 13 µM/h
- HOSCN IC50 (PAO1): 18 µM/h
- HOSCN IC50 (MRSA 43): 450 µM/h
- HOSCN IC50 (MRSA 44): 260 µM/h
- HOSCN IC50 (MRSA 45): 24 µM/h
- HOSCN IC50 (MRSA 46): 10 µM/h
- Lung cell viability [1]: spares host lung epithelial cells
- Bacterial viability (CFU) [2]: killing bacteria
- Inactivation of DmTrxR by oxidant (DmTrxR (containing Cys)): is inactivated
- Inactivation of Sec-TrxR2 by oxidant [3]: resists inactivation
- Apparent Vmax (HOSCN reductase activity) (P. aeruginosa: AMT0027L [4]): ND^c (No activity detected. Limit of detection = 0.5 nmol mg^−1 min^−1)
- Apparent Vmax (HOSCN reductase activity) (P. aeruginosa: AMT0294L): ND^c (No activity detected. Limit of detection = 0.5 nmol mg^−1 min^−1)
- Apparent Vmax (HOSCN reductase activity) (P. aeruginosa: AMT0009L): 0.8 ± 0.3 nmol/mg/min
- Apparent Vmax (HOSCN reductase activity) (P. aeruginosa: AMT0058L): 1.2 ± 0.2 nmol/mg/min
- Viability (%) (P. aeruginosa: AMT0027L [5]): 0%
- Viability (%) (P. aeruginosa: AMT0145L): 24.8 ± 2.5%
